Data from patent publication US10131652B2, “Pyrimidinyloxy benzene derivatives as herbicides” (E. I. DU PONT DE NEMOURS AND COMPANY, priority 2014, dated 2018).
Like-named read-outs stand apart in the source and are kept apart here.

Tests used:
Assay in all cases: Test F pre-/postemergence plant response
Type in all cases: in vivo
[1] = test system: arrowleaf sida (Sida rhombifolia); conditions: Sida rhombifolia, scale 0 to 100, read-out: Plant response rating, Arrowleaf Sida
In short: (§1)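 Seeds were sown in silt loam soil and sprayed preemergence; separately, plants at the 1- to 4-leaf stage (2 to 18 cm) received postemergence sprays. Test chemicals were in a non-phytotoxic solvent mixture with surfactant. After 14 to 21 days in a greenhouse, injury was visually rated 0 (no effect) to 100 (complete control) against untreated controls.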

[2] = test system: barnyardgrass (Echinochloa crus-galli); conditions: Echinochloa crus-galli, scale 0 to 100, read-out: Plant response rating, Barnyardgrass
In short: as §1

corn (Zea mays) = conditions: Zea mays, scale 0 to 100
In short: as §1

[3] = test system: dayflower (Virginia (VA) dayflower, Commelina virginica); conditions: Commelina virginica, scale 0 to 100, read-out: Plant response rating, Dayflower, VA
In short: as §1

[4] = test system: fall panicum (Panicum dichotomiflorum); conditions: Panicum dichotomiflorum, scale 0 to 100, read-out: Plant response rating, Panicum, Fall
In short: as §1

[5] = test system: giant foxtail (Setaria faberii); conditions: Setaria faberi, pre-emergence, scale 0 to 100, read-out: Plant response rating, Foxtail, Giant
In short: as §1

[6] = test system: green foxtail (Setaria viridis); conditions: Setaria viridis, pre-emergence, scale 0 to 100, read-out: Plant response rating, Foxtail, Green
In short: as §1

[7] = test system: johnsongrass (Sorghum halepense); conditions: Sorghum halepense, pre-emergence, scale 0 to 100, read-out: Plant response rating, Johnsongrass
In short: as §1

[8] = test system: large (Lg) crabgrass (Digitaria sanguinalis); conditions: Digitaria sanguinalis, pre-emergence, scale 0 to 100, read-out: Plant response rating, Crabgrass, Large
In short: as §1

[9] = test system: morningglory (Ipomoea coccinea); conditions: Ipomoea, pre-emergence, scale 0 to 100, read-out: Plant response rating, Morningglory
In short: as §1

[10] = test system: palmer pigweed (Amaranthus palmeri); conditions: Amaranthus palmeri, scale 0 to 100, read-out: Plant response rating, Pigweed, Palmer
In short: as §1

[11] = test system: ragweed (common ragweed, Ambrosia elatior); conditions: Ambrosia artemisiifolia, pre-emergence, scale 0 to 100, read-out: Plant response rating, Ragweed
In short: as §1

[12] = test system: sandbur (southern sandbur, Cenchrus echinatus); conditions: Cenchrus echinatus, scale 0 to 100, read-out: Plant response rating, Sandbur
In short: as §1

soybean (Glycine max) = conditions: Glycine max, scale 0 to 100, read-out: Plant response rating, Soybean
In short: as §1

[13] = test system: surinam grass (Brachiaria decumbens); conditions: Urochloa decumbens, pre-emergence, scale 0 to 100, read-out: Plant response rating, Surinam Grass
In short: as §1

[14] = test system: waterhemp (common waterhemp, Amaranthus rudis); conditions: Amaranthus tuberculatus, scale 0 to 100, read-out: Plant response rating, Waterhemp
In short: as §1

[15] = post-emergence, 8 g ai/ha Postemergence
[16] = post-emergence, 16 g ai/ha Postemergence
[17] = post-emergence, 31 g ai/ha Postemergence
[18] = post-emergence, 62 g ai/ha Postemergence
[19] = post-emergence, 125 g ai/ha Postemergence
[20] = pre-emergence, 8 g ai/ha Preemergence
[21] = pre-emergence, 16 g ai/ha Preemergence
[22] = pre-emergence, 31 g ai/ha Preemergence
[23] = pre-emergence, 62 g ai/ha Preemergence
[24] = pre-emergence, 125 g ai/ha Preemergence

For FC(F)c1cc(-c2ccccc2Oc2ncc(Cl)cn2)on1 [Compound 53, 5-chloro-2-[2-[3-(difluoromethyl)-5-isoxazolyl]phenoxy]pyrimidine], the pest or weed control at 8 g/ha [1, 15] was 70%, the pest or weed control at 16 g/ha [1, 16] was 90% and the pest or weed control at 31 g/ha [1, 17] was 98%. The pest or weed control at 62 g/ha [1, 18] was 100%, the pest or weed control at 125 g/ha [1, 19] was 98% and the pest or weed control at 8 g/ha [1, 20] was 0%. It also gave a pest or weed control at 16 g/ha [1, 21] of 20%, a pest or weed control at 31 g/ha [1, 22] of 65% and a pest or weed control at 62 g/ha [1, 23] of 100%. For the same molecule, the pest or weed control at 125 g/ha [1, 24] was 100%, the pest or weed control at 8 g/ha [2, 15] was 0% and the pest or weed control at 16 g/ha [2, 16] was 0%. It also gave a pest or weed control at 31 g/ha [2, 17] of 0%, a pest or weed control at 62 g/ha [2, 18] of 0% and a pest or weed control at 125 g/ha [2, 19] of 10%. It also gave a pest or weed control at 8 g/ha [2, 20] of 0%, a pest or weed control at 16 g/ha [2, 21] of 0% and a pest or weed control at 31 g/ha [2, 22] of 0%. The pest or weed control at 62 g/ha [2, 23] was 20%, the pest or weed control at 125 g/ha [2, 24] was 50% and the Corn plant response rating (crop injury, 0 = no effect, 100 = complete kill) at 8 g/ha (corn (Zea mays); [15]) was 0%. For the same molecule, the Corn plant response rating (crop injury, 0 = no effect, 100 = complete kill) at 16 g/ha (corn (Zea mays); [16]) was 0%, the Corn plant response rating (crop injury, 0 = no effect, 100 = complete kill) at 31 g/ha (corn (Zea mays); [17]) was 0% and the Corn plant response rating (crop injury, 0 = no effect, 100 = complete kill) at 62 g/ha (corn (Zea mays); [18]) was 0%. The Corn plant response rating (crop injury, 0 = no effect, 100 = complete kill) at 125 g/ha (corn (Zea mays); [19]) was 10%, the Corn plant response rating (crop injury, 0 = no effect, 100 = complete kill) at 8 g/ha (corn (Zea mays); [20]) was 0% and the Corn plant response rating (crop injury, 0 = no effect, 100 = complete kill) at 16 g/ha (corn (Zea mays); [21]) was 0%. For the same molecule, the Corn plant response rating (crop injury, 0 = no effect, 100 = complete kill) at 31 g/ha (corn (Zea mays); [22]) was 0%, the Corn plant response rating (crop injury, 0 = no effect, 100 = complete kill) at 62 g/ha (corn (Zea mays); [23]) was 0% and the Corn plant response rating (crop injury, 0 = no effect, 100 = complete kill) at 125 g/ha (corn (Zea mays); [24]) was 15%. It also gave a pest or weed control at 8 g/ha [3, 15] of 30%, a pest or weed control at 16 g/ha [3, 16] of 40% and a pest or weed control at 31 g/ha [3, 17] of 30%. For the same molecule, the pest or weed control at 62 g/ha [3, 18] was 50%, the pest or weed control at 125 g/ha [3, 19] was 60% and the pest or weed control at 8 g/ha [3, 20] was 0%. It also gave a pest or weed control at 16 g/ha [3, 21] of 0%, a pest or weed control at 31 g/ha [3, 22] of 0% and a pest or weed control at 62 g/ha [3, 23] of 50%. It also gave a pest or weed control at 125 g/ha [3, 24] of 95%, a pest or weed control at 8 g/ha [4, 15] of 0% and a pest or weed control at 16 g/ha [4, 16] of 5%. The pest or weed control at 31 g/ha [4, 17] was 20%, the pest or weed control at 62 g/ha [4, 18] was 15% and the pest or weed control at 125 g/ha [4, 19] was 60%. For the same molecule, the pest or weed control at 8 g/ha [4, 20] was 0%, the pest or weed control at 16 g/ha [4, 21] was 0% and the pest or weed control at 31 g/ha [4, 22] was 0%. For the same molecule, the pest or weed control at 125 g/ha [4, 24] was 98%, the pest or weed control at 62 g/ha ([4]; pre-emergence, Preemergence) was 95% and the pest or weed control at 8 g/ha ([5]; 8 g ai/ha Preemergence) was 0%. For the same molecule, the pest or weed control at 16 g/ha ([5]; 16 g ai/ha Preemergence) was 0%, the pest or weed control at 31 g/ha ([5]; 31 g ai/ha Preemergence) was 20% and the pest or weed control at 62 g/ha ([5]; 62 g ai/ha Preemergence) was 70%. For the same molecule, the pest or weed control at 125 g/ha ([5]; 125 g ai/ha Preemergence) was 95%, the pest or weed control at 8 g/ha ([6]; 8 g ai/ha Preemergence) was 0% and the pest or weed control at 16 g/ha ([6]; 16 g ai/ha, Preemergence) was 0%. It also gave a pest or weed control at 31 g/ha ([6]; 31 g ai/ha, Preemergence) of 0%, a pest or weed control at 125 g/ha ([6]; 125 g ai/ha, Preemergence) of 90% and a pest or weed control at 62 g/ha ([6]; Preemergence) of 20%. It also gave a pest or weed control at 8 g/ha ([7]; 8 g ai/ha Preemergence) of 0%, a pest or weed control at 16 g/ha ([7]; 16 g ai/ha Preemergence) of 0% and a pest or weed control at 31 g/ha ([7]; 31 g ai/ha Preemergence) of 0%. For the same molecule, the pest or weed control at 125 g/ha ([7]; 125 g ai/ha Preemergence) was 5%, the pest or weed control at 62 g/ha ([7]; Preemergence) was 0% and the pest or weed control at 8 g/ha ([8]; 8 g ai/ha Preemergence) was 0%. The pest or weed control at 16 g/ha ([8]; 16 g ai/ha Preemergence) was 0%, the pest or weed control at 31 g/ha ([8]; 31 g ai/ha Preemergence) was 15% and the pest or weed control at 62 g/ha ([8]; 62 g ai/ha Preemergence) was 80%. It also gave a pest or weed control at 125 g/ha ([8]; 125 g ai/ha Preemergence) of 98%, a pest or weed control at 8 g/ha ([9]; 8 g ai/ha Preemergence) of 0% and a pest or weed control at 16 g/ha ([9]; 16 g ai/ha Preemergence) of 0%. The pest or weed control at 31 g/ha ([9]; 31 g ai/ha Preemergence) was 0%, the pest or weed control at 125 g/ha ([9]; 125 g ai/ha Preemergence) was 0% and the pest or weed control at 62 g/ha ([9]; Preemergence) was 0%. The pest or weed control at 8 g/ha [10, 15] was 70%, the pest or weed control at 16 g/ha [10, 16] was 65% and the pest or weed control at 31 g/ha [10, 17] was 90%. The pest or weed control at 62 g/ha [10, 18] was 100%, the pest or weed control at 125 g/ha [10, 19] was 100% and the pest or weed control at 8 g/ha [10, 20] was 0%. The pest or weed control at 16 g/ha [10, 21] was 0%, the pest or weed control at 31 g/ha [10, 22] was 90% and the pest or weed control at 125 g/ha [10, 24] was 100%. For the same molecule, the pest or weed control at 62 g/ha ([10]; pre-emergence, Preemergence) was 100%, the pest or weed control at 8 g/ha ([11]; 8 g ai/ha Preemergence) was 0% and the pest or weed control at 16 g/ha ([11]; 16 g ai/ha Preemergence) was 0%. The pest or weed control at 31 g/ha ([11]; 31 g ai/ha Preemergence) was 0%, the pest or weed control at 125 g/ha ([11]; 125 g ai/ha Preemergence) was 40% and the pest or weed control at 62 g/ha ([11]; Preemergence) was 30%. It also gave a pest or weed control at 8 g/ha [12, 15] of 0%, a pest or weed control at 16 g/ha [12, 16] of 0% and a pest or weed control at 31 g/ha [12, 17] of 0%. For the same molecule, the pest or weed control at 62 g/ha [12, 18] was 5%, the pest or weed control at 125 g/ha [12, 19] was 10% and the pest or weed control at 8 g/ha [12, 20] was 0%. It also gave a pest or weed control at 16 g/ha [12, 21] of 0%, a pest or weed control at 31 g/ha [12, 22] of 0% and a pest or weed control at 125 g/ha [12, 24] of 0%. It also gave a pest or weed control at 62 g/ha ([12]; pre-emergence, Preemergence) of 0%, a plant injury at 8 g/ha (soybean (Glycine max); [15]) of 40% and a plant injury at 16 g/ha (soybean (Glycine max); [16]) of 80%. For the same molecule, the plant injury at 31 g/ha (soybean (Glycine max); [17]) was 95%, the plant injury at 62 g/ha (soybean (Glycine max); [18]) was 95% and the plant injury at 125 g/ha (soybean (Glycine max); [19]) was 95%. The plant injury at 8 g/ha (soybean (Glycine max); [20]) was 0%, the plant injury at 16 g/ha (soybean (Glycine max); [21]) was 0% and the plant injury at 31 g/ha (soybean (Glycine max); [22]) was 0%. For the same molecule, the plant injury at 125 g/ha (soybean (Glycine max); [24]) was 35%, the plant injury at 62 g/ha (soybean (Glycine max); pre-emergence, Preemergence) was 0% and the pest or weed control at 8 g/ha ([13]; 8 g ai/ha Preemergence) was 0%. It also gave a pest or weed control at 16 g/ha ([13]; 16 g ai/ha Preemergence) of 0%, a pest or weed control at 31 g/ha ([13]; 31 g ai/ha Preemergence) of 0% and a pest or weed control at 125 g/ha ([13]; 125 g ai/ha Preemergence) of 0%. The pest or weed control at 62 g/ha ([13]; Preemergence) was 0%, the pest or weed control at 8 g/ha [14, 15] was 80% and the pest or weed control at 16 g/ha [14, 16] was 95%. It also gave a pest or weed control at 31 g/ha [14, 17] of 98%, a pest or weed control at 62 g/ha [14, 18] of 100% and a pest or weed control at 125 g/ha [14, 19] of 100%. It also gave a pest or weed control at 8 g/ha [14, 20] of 0%, a pest or weed control at 16 g/ha [14, 21] of 0% and a pest or weed control at 31 g/ha [14, 22] of 95%. The pest or weed control at 125 g/ha [14, 24] was 100% and the pest or weed control at 62 g/ha ([14]; pre-emergence, Preemergence) was 100%.
